Results published in article doi:10.64898/2025.12.05.692609v2, “Early intervention with a PACAP lactoside following repetitive mild traumatic brain injury prevents persistent LHb hyperactivity and motivational deficits in male mice” (bioRxiv, 2025).
Read-outs that look alike come from different tables or passages of the source. Where a SMILES comes first, the peptide text is derived from it. [ ]: non-standard residue; d: D form. The star is where a group is joined. X1 = OC[C@H]1O[C@@H](O[C@H]2[C@H](O)[C@@H](O)[C@H](*)O[C@@H]2CO)[C@H](O)[C@@H](O)[C@H]1O; Nle = CCCC[C@H](N)C(=O)O

System: LHb neurons
Format: in vivo, male C57BL/6 mice
[1] = mTBI+early TES2320: 10 mg/kg i.p. within 30 min after each of 5 injuries, cell-attached V=0, ~4 weeks post-injury, n=138 cells/13 mice
[2] = mTBI+late TES2320: single 10 mg/kg i.p. injection one month post-mTBI, cell-attached V=0, n=58 cells/5 mice

CCCC[C@H](NC(=O)[C@H](CCC(N)=O)NC(=O)[C@H](CCCCN)NC(=O)[C@H](CCCNC(=N)N)NC(=O)[C@H](Cc1ccc(O)cc1)NC(=O)[C@H](CCCNC(=N)N)NC(=O)[C@H](CO)NC(=O)[C@H](Cc1ccc(O)cc1)NC(=O)[C@H](CO)NC(=O)[C@H](CC(=O)O)NC(=O)[C@@H](NC(=O)[C@H](Cc1ccccc1)NC(=O)[C@@H](NC(=O)CNC(=O)[C@H](CC(=O)O)NC(=O)[C@H](CO)NC(=O)[C@@H](N)Cc1c[nH]cn1)[C@@H](C)CC)[C@@H](C)O)C(=O)N[C@@H](C)C(=O)N[C@H](C(=O)N[C@@H](CCCCN)C(=O)N[C@@H](CCCCN)C(=O)N[C@@H](Cc1ccc(O)cc1)C(=O)N[C@@H](CC(C)C)C(=O)N[C@@H](CO[C@@H]1O[C@H](CO)[C@@H](O[C@@H]2O[C@H](CO)[C@H](O)[C@H](O)[C@H]2O)[C@H](O)[C@H]1O)C(N)=O)C(C)C [TES2320] (H-HSDGIFTDSYSRYRKQ[Nle]AVKKYLS(X1)-NH2; N-terminus assumed)
effect on mTBI-induced spontaneous LHb tonic hyperactivity (early intervention, 10 mg/kg i.p. x5, vs mTBI+vehicle p<0.01, Chi squared test): prevented | effect on mTBI-induced spontaneous LHb tonic hyperactivity (late intervention, single 10 mg/kg i.p. one month post-mTBI, vs mTBI+vehicle p<0.05, Chi squared test): reversed | LHb neurons bursting, spontaneous activity [1]: 4% | LHb neurons silent, spontaneous activity [1]: 50% | LHb neurons tonic, spontaneous activity [1]: 46% | LHb neurons bursting, spontaneous activity [2]: 5% | LHb neurons silent, spontaneous activity [2]: 48% | LHb neurons tonic, spontaneous activity [2]: 47%
